From patent US12216122B2, “Compositions and methods relating to detection, inhibition, and imaging of indoleamine 2,3-dioxygenase 1 (IDO1)” (Regeneron Pharmaceuticals, Inc., priority 2019, dated 2025)
Read-outs that look alike come from different tables or passages of the source. One block for each compound: values may come before it. Numbered stars: 1 amine (or outer) side, 2 acyl side, 3 side chain; on linkers, the order of the positions; unused ones are H or OH. Bridge positions count the residues as written; N and C are the ends. Square brackets hold non-standard residues; d marks the D form. Triazole bridges read from a SMILES are 1,4-linked. Ends that are not written are not given here. Peptide text beside a SMILES is read from it. * marks the point of attachment. Biotinyl(3aR,4R,6aS) = O=C1N[C@@H]2[C@@H](CS[C@@H]2CCCCC(=O)*)N1; X6 = O=C([C@@H](Cc1ccc(Oc2ccccc2)cc1)N[*:1])[*:2]; Biotin = O=C1N[C@H]2[C@H](CS[C@H]2CCCCC(=O)*)N1; dTrp(1-Me) = Cn1cc(C[C@@H](N)C(=O)O)c2ccccc21; Trp(1-Me) = Cn1cc(C[C@H](N)C(=O)O)c2ccccc21; dPhe(4-Me) = Cc1ccc(C[C@@H](N)C(=O)O)cc1; Lys(N3) = [N-]=[N+]=NCCCC[C@H](N)C(=O)O; Phe(4-F) = N[C@@H](Cc1ccc(F)cc1)C(=O)O; X4 = O=C1NC2CS[C@@H](CCCCC(=O)*)C2N1; dTle = CC(C)(C)[C@@H](N)C(=O)O; AEEEA = NCCOCCOCCOCC(=O)O; Pra = C#CC[C@H](N)C(=O)O

Experiments:
[1] = target: T1, His-tagged IDO1 human recombinant protein (Homo sapiens, UniProt P14902); experiment: IDO1 ELISA (Affinity Assay): sandwich ELISA, biotinylated ligand immobilized on NEUTRAVIDIN plate; assay type: binding
T1 construct: purchased BPS Biosciences 71182
T1 sequence (P14902 whole entry): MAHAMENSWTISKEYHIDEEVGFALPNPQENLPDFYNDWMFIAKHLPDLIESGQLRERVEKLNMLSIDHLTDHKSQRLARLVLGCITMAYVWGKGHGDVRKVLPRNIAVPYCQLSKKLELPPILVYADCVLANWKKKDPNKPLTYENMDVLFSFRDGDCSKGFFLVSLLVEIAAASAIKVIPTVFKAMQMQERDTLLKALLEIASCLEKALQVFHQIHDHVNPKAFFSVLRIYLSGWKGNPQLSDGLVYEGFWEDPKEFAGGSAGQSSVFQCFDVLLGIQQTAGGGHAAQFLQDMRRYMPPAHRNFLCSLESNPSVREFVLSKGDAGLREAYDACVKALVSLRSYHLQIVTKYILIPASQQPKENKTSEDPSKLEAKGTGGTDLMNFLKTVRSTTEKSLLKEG
Protocol: Protocol: A black 96-well NEUTRAVIDIN® Coated High Binding Capacity plate (15510, Pierce) was coated with 2 μM biotinylated macrocyclic peptide ligand in TBS (25 mM Tris-HCl, 150 mM NaCl, pH 7.6) for 2 h at room temperature. The plate was aspirated and then washed with Wash Buffer (0.05% (v/v) TWEEN® 20 in PBS, 6×). His-tagged IDO1 human recombinant protein (71182, BPS Biosciences) was serially diluted in Wash Buffer (from 200 to 0 nM) and incubated in the designated microwells for 1 h at room temperature. Microwells were aspirated and subsequently washed with Wash Buffer (11×). To detect the bound IDO1 protein, Alkaline Phosphatase (AP)-conjugated Anti-6×HIS TAG® antibody [HIS-1] (ab49746, Abcam) was prepared at 1:10,000 dilution and added to the microwells for 1 h at room temperature. The plate was aspirated and washed with Wash Buffer (5×). ATTOPHOS® AP Fluorescent Substrate System (S1000, Promega) was employed to develop the microwells. Using an excitation wavelength of 430 nm, fluorescent emission at 535 nm was recorded by Beckman Coulter DTX880 photometer. Titration curves were fit using a four-parameter regression curve fitting program to determine EC50 values.
For these assays, a dilution series of His-tagged IDO1 human recombinant protein was captured using the macrocyclic peptide ligands immobilized on a NEUTRAVIDIN®-coated plate. […] The sequences of the peptide ligands are listed in Table 1, where D-amino acids are denoted in lowercase, Me-Trp=1-methyl-L-tryptophan, and F-Phe=4-fluoro-L-phenylalanine. Chemical structures are shown below Table 1.
The D-alanine substituted, biotin-PEG3-modified macrocycles were tested in the IDO1 ELISA (Affinity assay). For these assays, a dilution series of His-tagged IDO1 human recombinant protein was captured using macrocycles immobilized on a NEUTRAVIDIN®-coated plate.

recombinant human IDO1 = target: T2, recombinant human IDO1 (Homo sapiens, UniProt P14902); experiment: IDO1 Fluorogenic Inhibitor Screening Assay (enzyme inhibition); assay type: biochemical
T2 construct: purchased BPS Biosciences 72037
T2 sequence (P14902 whole entry): as above
Protocol: The IDO1 Fluorogenic Inhibitor Screening Assay Kit (72037, BPS Biosciences) was used to measure the enzyme inhibition of human IDO1 in the presence of macrocyclic peptide ligands. IDO1 catalyzes the conversion of the essential amino acid L-tryptophan (L-Trp) to N-formylkynurenine (NFK). In the assay, the test inhibitor and enzyme were added to a sample containing L-Trp substrate. After incubation for 1 h at room temperature, 20 μL Fluorescence Solution was added and incubated at 37° C. for 4 h to produce a fluorescent product. Activity was measured by reading sample fluorescence at λ=510 nm following excitation of the reaction product at λ=400 nm.

[2] = 2 μM biotinylated macrocycle immobilized, human IDO1 titrated 200 to 0 nM, read-out: EC50, sandwich ELISA for human IDO1 protein against biotin-PEG3-modified macrocycle

EC50 [1, 2]: 124 nM
EC50 ([1]; Example 9, read-out: Binding affinity (EC50) of prioritized Epitope 1 hits): 124 nM
Compound: Cn1cc(C[C@H]2NC(=O)[C@@H](CCCNC(=N)N)NC(=O)[C@@H](Cc3ccccc3)NC(=O)[C@@H](CO)NC(=O)[C@@H](CC(N)=O)NC(=O)[C@@H](NC(=O)COCCOCCOCCNC(=O)CCCC[C@@H]3SCC4NC(=O)NC43)Cc3cn(nn3)CCCC[C@@H](C(N)=O)NC2=O)c2ccccc21 (stereo partly shown) [nsfr(Me-Trp), biotin-PEG3-Cy(nsfr(Me-Trp))] ({X4-AEEEA}-[Pra][dN][dS][dF][dR][dTrp(1-Me)][Lys(N3)]-NH2; triazole 1-7)

EC50 [1, 2]: 68 nM
Compound: N=C(N)NCCC[C@H]1NC(=O)[C@H](Cc2ccc(F)cc2)NC(=O)[C@@H](Cc2c[nH]cn2)NC(=O)[C@@H](CO)NC(=O)[C@@H](CC(N)=O)NC(=O)[C@@H](NC(=O)COCCOCCOCCNC(=O)CCCC[C@H]2SC[C@H]3NC(=O)N[C@H]32)Cc2cn(nn2)CCCC[C@@H](C(N)=O)NC1=O [nsh(F-Phe)r, biotin-PEG3-Cy(nsh(F-Phe)r)] ({Biotinyl(3aR,4R,6aS)-AEEEA}-[Pra][dN][dS][dH][Phe(4-F)][dR][Lys(N3)]-NH2; triazole 1-7)

Compound: NC(=O)[C@@H]1CCCCn2cc(nn2)C[C@H](NC(=O)COCCOCCOCCNC(=O)CCCC[C@@H]2SC[C@@H]3NC(=O)N[C@@H]32)C(=O)N[C@H](CO)C(=O)N[C@H](Cc2c[nH]c3ccccc23)C(=O)N[C@H](Cc2c[nH]c3ccccc23)C(=O)N[C@@H](Cc2ccc(F)cc2)C(=O)N1 [sww(F-Phe), Biotin-PEG3-Cy(sww(F-Phe))] ({Biotin-AEEEA}-[Pra][dS][dW][dW][Phe(4-F)][Lys(N3)]-NH2; triazole 1-6)
Binding to human IDO1 by ELISA, in words [1]: superior to the other 4-mers generated

EC50 ([1]; read-out: Binding affinity (EC50)): 18 nM
Compound: CC(=O)N[C@H]1Cc2cn(nn2)CCCC[C@@H](C(N)=O)NC(=O)[C@@H](Cc2ccc(C)cc2)NC(=O)CNC(=O)[C@@H](C(C)(C)C)NC(=O)[C@@H](Cc2ccc(Oc3ccccc3)cc2)NC(=O)[C@@H](Cc2c[nH]c3ccccc23)NC1=O [w(Ph-Tyr)(Me-Val)G(Me-Phe)] (Ac-[Pra][dW][X6][dTle]G[dPhe(4-Me)][Lys(N3)]-NH2; triazole 1-7)

Compound: C[C@H]1NC(=O)[C@@H](CCCNC(=N)N)NC(=O)[C@@H](Cc2c[nH]c3ccccc23)NC(=O)[C@@H](NC(=O)COCCOCCOCCNC(=O)CCCC[C@H]2SC[C@H]3NC(=O)N[C@H]32)Cc2cn(nn2)CCCC[C@@H](C(N)=O)NC(=O)[C@@H](Cc2ccc(O)cc2)NC1=O [wray, Biotin-PEG3-Cy(wray)] ({Biotinyl(3aR,4R,6aS)-AEEEA}-[Pra][dW][dR][dA][dY][Lys(N3)]-NH2; triazole 1-6)
Binding to human IDO1 by ELISA, in words [1]: less potent binders

Compound: C[C@H]1NC(=O)[C@@H](CCCNC(=N)N)NC(=O)[C@@H](Cc2ccc(O)cc2)NC(=O)[C@@H](NC(=O)COCCOCCOCCNC(=O)CCCC[C@H]2SC[C@H]3NC(=O)N[C@H]32)Cc2cn(nn2)CCCC[C@@H](C(N)=O)NC(=O)[C@@H](Cc2ccc(O)cc2)NC1=O [yray, Biotin-PEG3-Cy(yray)] ({Biotinyl(3aR,4R,6aS)-AEEEA}-[Pra][dY][dR][dA][dY][Lys(N3)]-NH2; triazole 1-6)
Binding to human IDO1 by ELISA, in words [1]: less potent binders

Compound: Inh-PEG6-wyvay ([dW][dY][dV][dA][dY]; also: IDO1 inhibitor via PEG6 linker)
IDO1 inhibition potency relative to the small molecule (Inh) alone, in words (recombinant human IDO1): an order of magnitude more potent than the small molecule

Compound: PEG4
IDO1 inhibition potency relative to the small molecule (Inh) alone, in words (recombinant human IDO1): less active than the small molecule alone

EC50 ([1]; binding analysis of VHL-linked Epitope 2 ligand, read-out: EC50): 30 nM
Compound: nlf(Me-Trp)(F-Phe)-Ge-VHL: Epitope 2 peptide ligand linked to VHL E3 ligase ligand ([dN][dL][dF][Trp(1-Me)][Phe(4-F)]; also: Ge linker to VHL E3 ligase ligand)
